We go through 23 molecules from patent publication US8614215B2, “Quinoxaline inhibitors of phosphoinositide-3-kinases (PI3Ks)” (Merck Serono SA, priority 2007, dated 2013).

For experiment [1], the system named is Human recombinant GST-PI3K. The experiment can be described thus: PI3K induced-lipid phosphorylation, neomycin-SPA scintillation proximity assay. The experiment is classed as biochemical. The following applies: Human recombinant GST-PI3K, SPA. In general terms: In a scintillation proximity assay essentially only radioactivity close to the scintillant gives light.

The subject of experiment [2] is IgM-induced Akt phosphorylation in B cell. The experiment in a line: IgM-induced Akt phosphorylation in B cell (PBMC, flow cytometry). Format: cell-based. The following applies: human PBMC, CD19+ IgM+ B cells, read-out: IC50 μM, inhibition of IgM-induced Akt phosphorylation. How it is done: Human PBMC were prepared from a Buffy coat (Geneve Hospital) after a Ficoll gradient (Ficoll-Paque™ Plus PHARMACIA ref: 17-1440-03).
Cell concentration was adjusted to 10^6 cells per mL in RPMI (GIBCO Ref: 72400-21) without serum. Before stimulation, 90 μl of PBMC suspension was incubated with 10 μl of diluted compound in a 96 well round bottom plate for 20 minutes at 37° C.
For B cell activation, 30 μl of Fab′2 Goat anti IgM (Jackson Immuno-research) at10 μg/mL was added to each well. After 5 minutes, cell activation was stopped with 4% paraformaldehyde (10 minutes at room temperature).
Fixed PBMC were then treated for 20 minutes with 0.15% Triton, washed twice with PBS and permeabilized with 50% methanol for 15 minutes.
PBMC were washed twice in PBS, resuspended in: PBS-4% FCS and incubated with anti P-Akt ( 1/100 dilution) for one h at room temperature.
After one wash, PBMC were further stained for 30 minutes with a mixture of anti-CD19-PE (BD Biosciences), anti-IgM-FITC (BD Biosciences) and goat anti rabbit IgG-Alexa 647 (Molecular probe).
After washing, PBMC (Peripheral Blood Mononuclear Cells) were analysed on a FACSCalibur instrument (BD Biosciences) equipped with a 633 helium-neon laser, or stored at 4° C. for further analysis. 510^3 B cells events were gathered per sample in the CD19 positive region.
For the analysis, a threshold was applied on P-Akt histogram of CD19+ IgM+ lymphocytes cells from the non stimulated samples and the percentage of cells above this threshold was determined for each sample.
(In general: In flow cytometry, cells or beads pass a laser one at a time.)

Experiment [3] deals with IgM-induced Akt phosphorylation in B cell in the presence of whole blood. The experiment can be described thus: IgM-induced Akt phosphorylation in B cell in the presence of whole blood. Format: cell-based. The following applies: Homo sapiens, CD19+ IgM+ cells, read-out: IC50 μM, inhibition of IgM-induced Akt phosphorylation in the presence of whole blood. How it is done: 100 μl of blood are pre-incubated in falcon tube (352063) for 20 minutes at 37° C.
For B cell activation 100 μl of Fab′2 Goat anti Human IgM (30 ug/mL final) is added to each tube and cells are maintained at 37° C.
After 5 minutes, cell activation is stopped with 130 μl Formaldehyde 10% (4% final) and cells are left 10 minutes at room temperature.
Fixed cells are then treated 30 minutes with Triton 0.1% final (add 1 mL of 0.15% Triton)
After several washes with PBS (red cells lysed progressively during washes, 3-4 washes are necessary), cells are transferred in 96 well plate and permeabilized with 50% ice cold Methanol (resuspend first the cells with 80 μl PBBS and then with 80 μl 100% ice cold Methanol) and put on ice for 15 minutes. Plate can be stored in −20° C. in methanol and surface staining performed another day).
Cells are washed twice with PBS and once with the staining buffer-PBS-4% FCS.
Cells are incubated with anti P-Akt (1/70 dilution) In staining buffer for one h.
After a wash with staining buffer, cells are stained with a mixture of anti CD19-PE (3 ul/well), anti-IGM-FITC (3 ul/well), Goat anti rabbit IgG-Alexa 647 (1/500), goat IgG (1/200) for 30 minutes.
After a wash, cells are resuspended in staining buffer or PBS, kept in fridge or immediately passed on a FACSCalibur instrument (BD Biosciences) equipped with a 633 helium-neon laser (red laser).
P-akt histogram of CD19+IGM+ cells is represented and a threshold is set with the non stimulated sample. The parameter reported for each sample is the % of positive cells above this cursor. A representative example is set out in FIG. 1.

Each structure is given as a SMILES string. pIC50: −log10 of the molar value.

`COC(=O)c1ccc(OC)cc1Nc1nc2ccccc2nc1NS(=O)(=O)c1cn(C)cn1` [Example 1, methyl 4-methoxy-2-[(3-{[(1-methyl-1H-imidazol-4-yl)sulfonyl]amino}quinoxalin-2-yl)amino]benzoate]: in experiment [1], the pIC50 was 7.68. In experiment [2], the IC50 was found to be 0.07 µM.

Regarding `COC(=O)c1ccc(OC)cc1Nc1nc2ccccc2nc1NS(=O)(=O)c1cccnc1` [Example 2], in experiment [1], the pIC50 was 7.06. Also, in experiment [2], the IC50 came out at 0.04 µM.

On to `COc1ccc(CC2CCOCC2)c(Nc2nc3ccccc3nc2NS(=O)(=O)c2cn(C)cn2)c1` [Example 7, N-(3-{[5-methoxy-2-(tetrahydro-2H-pyran-4-ylmethyl)phenyl]amino}quinoxalin-2-yl)-1-methyl-1H-imidazole-4-sulfonamide], for which the pIC50 in experiment [1] was 7.31. Moreover, in experiment [2], the IC50 was determined as 0.02 µM.

For `COc1ccc(CC2CCOCC2)c(Nc2nc3ccccc3nc2NS(C)(=O)=O)c1` [Example 8, N-(3-{[5-methoxy-2-(tetrahydro-2H-pyran-4-ylmethyl)phenyl]amino}quinoxalin-2-yl)methanesulfonamide], the pIC50 in experiment [1] is 6.89. In experiment [2], the IC50 came to 0.07 µM.

Regarding `COc1ccc(CC2CCOCC2)c(Nc2nc3ccccc3nc2NS(=O)(=O)c2cccnc2)c1` [Example 9, N-(3-{[5-methoxy-2-(tetrahydro-2H-pyran-4-ylmethyl)phenyl]amino}quinoxalin-2-yl)pyridine-3-sulfonamide], the pIC50 in experiment [1] is 7.57. Further, the IC50 in experiment [2] was 0.01 µM.

With `COc1ccc(CC2CCN(C)CC2)c(Nc2nc3ccccc3nc2NS(=O)(=O)c2cn(C)cn2)c1` [Example 11, N-[3-({5-methoxy-2-[(1-methylpiperidin-4-yl)methyl]phenyl}amino)quinoxalin-2-yl]-1-methyl-1H-imidazole-4-sulfonamide], in experiment [1], the pIC50 was 7.37. Besides, the half-inhibitory concentration (IC50) worked out at 0.07 µM in experiment [2] and 0.3 µM in experiment [3].

`COc1ccc(CC2CCN(C)CC2)c(Nc2nc3ccccc3nc2NS(C)(=O)=O)c1` [Example 13, N-[3-({5-methoxy-2-[(1-methylpiperidin-4-yl)methyl]phenyl}amino)quinoxalin-2-yl]methanesulfonamide]: in experiment [1], the pIC50 is 6.96. Besides, the IC50 in experiment [2] came to 0.07 µM; in experiment [3], 1 µM.

Take `COc1ccc(CC2CCN(C(C)=O)CC2)c(Nc2nc3ccccc3nc2NS(=O)(=O)c2cn(C)cn2)c1` [Example 16, N-[3-({2-[(1-acetylpiperidin-4-yl)methyl]-5-methoxyphenyl}amino)quinoxalin-2-yl]-1-methyl-1H-imidazole-4-sulfonamide]: the pIC50 in experiment [1] was 7.05. Moreover, the IC50 in experiment [2] is 0.076 µM.

In the case of `COc1ccc(CC2CCN(C(C)=O)CC2)c(Nc2nc3ccccc3nc2NS(=O)(=O)c2cccnc2)c1` [Example 17], the negative-log IC50 (pIC50) in experiment [1] was 7.29. For the same molecule, the IC50 in experiment [2] was 0.037 µM.

As to `COc1ccc(CC2CCC(O)CC2)c(Nc2nc3ccccc3nc2NS(=O)(=O)c2cccnc2)c1` (centres unmarked) [Example 23, N-[3-({2-[(4-hydroxycyclohexyl)methyl]-5-methoxyphenyl}amino)quinoxalin-2-yl]pyridine-3-sulfonamide], the negative-log IC50 (pIC50) in experiment [1] is 7.70. Besides, in experiment [2], the IC50 is 0.017 µM.

On to `COc1ccc(CC2CCOCC2)c(Nc2nc3ccccc3nc2NS(=O)(=O)c2ccc(CN(C)C)cc2)c1` [Example 86, 4-[(dimethylamino)methyl]-N-(3-{[methoxy-2-(tetrahydro-2H-pyran-4-ylmethyl)phenyl]amino}quinoxalin-2-yl)benzenesulfonamide], for which, in experiment [2], the IC50 was found to be 0.013 µM.

As for `COc1ccc(CCO)c(Nc2nc3ccccc3nc2NS(=O)(=O)c2ccc(CCCO)cc2)c1` [Example 93, N-(3-{[2-(2Hydroxyethyl)-5-methoxyphenyl]amino}quinoxalin-2-yl)-4-(3-hydroxypropyl)benzenesulfonamide], the pIC50 in experiment [1] is 7.44.

`COc1ccc(CCO)c(Nc2nc3ccccc3nc2NS(=O)(=O)c2ccc(OCCO)cc2)c1` [Example 94]: the pIC50 in experiment [1] is 7.47.

`COc1cc(CN(C)C)cc(Nc2nc3ccccc3nc2NS(=O)(=O)c2cn(C)cn2)c1` [Example 95, N-[3-({3-[(Dimethylamino)methyl]-5-methoxyphenyl}amino)quinoxalin-2-yl]-1-methyl-1H-imidazole-4-sulfonamide]: the pIC50 in experiment [1] was 5.96.

As to `COc1ccc(CC2CCN(C(=O)CN(C)C)CC2)c(Nc2nc3ccccc3nc2NS(=O)(=O)c2cn(C)cn2)c1` [Example 96, N-{3-[(2-{[1-(N,N-dimethylglycyl)piperidin-4-yl]methyl}-5-methoxyphenyl)amino]quinoxalin-2-yl}-1-methyl-1H-imidazole-4-sulfonamide], the pIC50 in experiment [1] is 7.00.

In the case of `COc1ccc(CC2CCN(S(C)(=O)=O)CC2)c(Nc2nc3ccccc3nc2NS(=O)(=O)c2cn(C)cn2)c1` [Example 97, N-{3-[(5-methoxy-2-{[1-(methylsulfonyl)piperidin-4-yl]methyl}phenyl)amino]quinoxalin-2-yl}-1-methyl-1H-imidazole-4-sulfonamide], in experiment [1], the pIC50 was 6.80.

As to `COc1ccc(C(=O)O)c(Nc2nc3ccccc3nc2NS(=O)(=O)c2cccnc2)c1` [Example 98, 4-methoxy-2-({3-[(pyridin-3-ylsulfonyl)amino]quinoxalin-2-yl}amino)benzoic acid], in experiment [1], the pIC50 was 5.33.

On to `COc1ccc(CCCO)c(Nc2nc3ccccc3nc2NS(=O)(=O)C2CCNCC2)c1` [Example 99, N-(3-{[2-(3-Hydroxypropyl)-5-methoxyphenyl]amino}quinoxalin-2-yl)piperidine-4-sulfonamide], for which the negative-log IC50 (pIC50) in experiment [1] is 7.59.

On to `COCCc1ccc(OC)cc1Nc1nc2ccccc2nc1NS(=O)(=O)C1CCNCC1` [Example 100, N-(3-{[5-Methoxy-2-(2-methoxyethyl)phenyl]amino}quinoxalin-2-yl)piperidine-4-sulfonamide], for which the pIC50 in experiment [1] is 7.01.

Take `COCCc1ccc(OC)cc1Nc1nc2ccccc2nc1NS(=O)(=O)C1CCN(C(C)=O)CC1` [Example 101, 1-Acetyl-N-(3-{[5-methoxy-2-(2-methoxyethyl)phenyl]amino}quinoxalin-2-yl)piperidine-4-sulfonamide]: the pIC50 in experiment [1] is 6.52.

On to `COc1ccc(CCCO)c(Nc2nc3ccccc3nc2NS(=O)(=O)c2cccc(NC(=O)CO)c2)c1` [Example 102, 2-Hydroxy-N-(3-{[(3-{[2-(3-hydroxypropyl)-5-methoxyphenyl]amino}quinoxalin-2-yl)amino]sulfonyl}phenyl)acetamide], for which the negative logarithm of the IC50 (pIC50) in experiment [1] was 7.92.

With `COc1ccc(CCOC(=O)[C@@H](NC(=O)OCC2c3ccccc3-c3ccccc32)C(C)C)c(Nc2nc3ccccc3nc2NS(=O)(=O)c2cn(C)cn2)c1` [Example 103, 2-{4-Methoxy-2-[(3-{[(1-methyl-1H-imidazol-4-yl)sulfonyl]amino}quinoxalin-2-yl)amino]phenyl}ethyl N-[(9H-fluoren-9-ylmethoxy)carbonyl]-L-valinate], the pIC50 in experiment [1] was 5.74.

Consider `COc1ccc(CCOC(=O)[C@@H](N)C(C)C)c(Nc2nc3ccccc3nc2NS(=O)(=O)c2cn(C)cn2)c1` [Example 104], for which, in experiment [1], the pIC50 was 7.00.

As usually defined, the pIC50 is −log10 of the IC50, conventionally taken in molar units. By IC50 is commonly meant the concentration that gives 50% inhibition.
